Laboratory results published in patent US6737383B1, “Herbicidal oxadiazolidines” (priority 1999, dated 2004).

Legend:
blackgrass = test: Test B pre/postemergence blackgrass; assay type: in vivo, Alopecurus myosuroides
Summary of the method: (§1)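 Herbicidal effect was estimated by eye on a ten-point control scale after plants spent twelve to sixteen days in a greenhouse following soil or foliar treatment. Foliar sprays targeted plants at one to four leaves; all doses were formulated in a non-phytotoxic solvent with surfactant.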

surinam grass = test: Test B pre/postemergence surinam grass; assay type: in vivo, Brachiaria decumbens
Summary of the method: as §1

cocklebur = test: Test B pre/postemergence cocklebur; assay type: in vivo, Xanthium strumarium
Summary of the method: as §1

corn = test: Test B pre/postemergence corn; assay type: in vivo, Zea mays
Summary of the method: as §1

crabgrass = test: Test B pre/postemergence crabgrass; assay type: in vivo, Digitaria sanguinalis
Summary of the method: as §1

giant foxtail = test: Test B pre/postemergence giant foxtail; assay type: in vivo, Setaria faberii
Summary of the method: as §1

morningglory = test: Test B pre/postemergence morningglory; assay type: in vivo, Ipomoea hederacea
Summary of the method: as §1

pigweed = test: Test B pre/postemergence pigweed; assay type: in vivo, Amaranthus retroflexus
Summary of the method: as §1

rape = test: Test B pre/postemergence rape; assay type: in vivo, Brassica napus
Summary of the method: as §1

sugar beet = test: Test B pre/postemergence sugar beet; assay type: in vivo, Beta vulgaris
Summary of the method: as §1

velvetleaf = test: Test B pre/postemergence velvetleaf; assay type: in vivo, Abutilon theophrasti
Summary of the method: as §1

wheat = test: Test B pre/postemergence wheat; assay type: in vivo, Triticum aestivum
Summary of the method: as §1

purple nutsedge = test: Test B pre/postemergence purple nutsedge; assay type: in vivo, Cyperus rotundus
Summary of the method: as §1

rice = test: Test B flood test rice; assay type: in vivo, Oryza sativa
Summary of the method: (§2)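 Flood test on plants grown to the 2-leaf stage; treated plants kept in greenhouse twelve to sixteen days, then visually rated against controls on a 0 (no effect) to 10 (complete control) scale.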

smallflower flatsedge = test: Test B flood test smallflower flatsedge; assay type: in vivo, Cyperus difformis
Summary of the method: as §2

duck salad = test: Test B flood test duck salad; assay type: in vivo, Heteranthera limosa
Summary of the method: as §2

[1] = Postemergence, Rate 62 g/ha, scale 0 to 10, 0 is no effect, 10 is complete control
[2] = Postemergence, Rate 250 g/ha, scale 0 to 10, 0 no effect, 10 complete control
[3] = Preemergence, Rate 62 g/ha, scale 0 to 10 (0 no effect, 10 complete control)
[4] = Preemergence, Rate 125 g/ha, scale 0 to 10 (0 no effect, 10 complete control)
[5] = Preemergence, Rate 250 g/ha, scale of 0 to 10 where 0 is no effect and 10 is complete control
[6] = Preemergence, Rate 500 g/ha, scale 0 (no effect) to 10 (complete control)
[7] = Rate 125 g/ha, Postemergence, scale 0 to 10, 0 no effect, 10 complete control
[8] = Rate 500 g/ha, Postemergence, scale 0 to 10, 0 no effect, 10 complete control
[9] = Rate 125 g/ha, Postemergence section (flood test species), scale 0 to 10, 0 no effect, 10 complete control
[10] = Rate 500 g/ha, listed under Postemergence (flood test species), scale 0 to 10, 0 no effect, 10 complete control
[11] = flood test, listed under Postemergence, Rate 250 g/ha, scale 0 to 10, 0 no effect, 10 complete control

## CN(C(=O)n1oc(=O)n(Cc2cccs2)c1=O)c1ccccc1 [Compound 83]
blackgrass; [1]
  Blackgrass plant response rating: 0
blackgrass; [2]
  Blackgrass plant response rating: 0
blackgrass; [3]
  Blackgrass plant response rating: 0
blackgrass; [4]
  Plant response rating, Blackgrass: 0
blackgrass; [5]
  Plant response rating, Blackgrass: 0
blackgrass; [6]
  Blackgrass plant response rating: 0
blackgrass; [7]
  Blackgrass plant response rating: 0
blackgrass; [8]
  Blackgrass plant response rating: 0
Surinam grass; [1]
  B. signalgrass plant response rating: 0
Surinam grass; [2]
  B. signalgrass plant response rating: 0
Surinam grass; [3]
  B. signalgrass plant response rating: 0
Surinam grass; [4]
  Plant response rating, B. signalgrass: 0
Surinam grass; [5]
  Plant response rating, B. signalgrass: 0
Surinam grass; [6]
  B. signalgrass plant response rating: 0
Surinam grass; [7]
  B. signalgrass plant response rating: 0
Surinam grass; Rate 500 g/ha, Postemergence, scale of 0 to 10 where 0 is no effect and 10 is complete control
  B. signalgrass plant response rating: 0
cocklebur; [1]
  Cocklebur plant response rating: 0
cocklebur; [2]
  Cocklebur plant response rating: 1
cocklebur; [3]
  Cocklebur plant response rating: 0
cocklebur; [4]
  Plant response rating, Cocklebur: 0
cocklebur; [5]
  Plant response rating, Cocklebur: 0
cocklebur; [6]
  Cocklebur plant response rating: 0
cocklebur; [7]
  Cocklebur plant response rating: 0
cocklebur; [8]
  Cocklebur plant response rating: 1
corn; [1]
  Corn plant response rating: 0
corn; [2]
  Corn plant response rating: 0
corn; [3]
  Corn plant response rating: 0
corn; [4]
  Plant response rating, Corn: 0
corn; [5]
  Plant response rating, Corn: 0
corn; [6]
  Corn plant response rating: 0
corn; [7]
  Corn plant response rating: 0
corn; [8]
  Corn plant response rating: 0
crabgrass; [1]
  Crabgrass plant response rating: 0
crabgrass; [2]
  Crabgrass plant response rating: 0
crabgrass; [3]
  Crabgrass plant response rating: 0
crabgrass; [4]
  Plant response rating, Crabgrass: 0
crabgrass; [5]
  Plant response rating, Crabgrass: 0
crabgrass; [6]
  Crabgrass plant response rating: 0
crabgrass; [7]
  Crabgrass plant response rating: 0
crabgrass; [8]
  Crabgrass plant response rating: 0
Giant foxtail; [1]
  Giant foxtail plant response rating: 0
Giant foxtail; [2]
  Giant foxtail plant response rating: 0
Giant foxtail; [3]
  Giant foxtail plant response rating: 0
Giant foxtail; [4]
  Plant response rating, Giant foxtail: 0
Giant foxtail; [5]
  Plant response rating, Giant foxtail: 0
Giant foxtail; [6]
  Giant foxtail plant response rating: 0
Giant foxtail; [7]
  Giant foxtail plant response rating: 0
Giant foxtail; [8]
  Giant foxtail plant response rating: 0
morningglory; [1]
  Morningglory plant response rating: 0
morningglory; [2]
  Morningglory plant response rating: 0
morningglory; [3]
  Morningglory plant response rating: 0
morningglory; [4]
  Plant response rating, Morningglory: 0
morningglory; [5]
  Plant response rating, Morningglory: 0
morningglory; [6]
  Morningglory plant response rating: 0
morningglory; [7]
  Morningglory plant response rating: 0
morningglory; [8]
  Morningglory plant response rating: 0
pigweed; [1]
  Redroot pigweed plant response rating: 0
pigweed; [2]
  Redroot pigweed plant response rating: 0
pigweed; [3]
  Redroot pigweed plant response rating: 0
pigweed; [4]
  Plant response rating, Redroot pigweed: 0
pigweed; [5]
  Plant response rating, Redroot pigweed: 0
pigweed; [6]
  Redroot pigweed plant response rating: 0
pigweed; [7]
  Redroot pigweed plant response rating: 0
pigweed; [8]
  Redroot pigweed plant response rating: 0
rape; [1]
  Rape plant response rating: 0
rape; [2]
  Rape plant response rating: 0
rape; [3]
  Rape plant response rating: 0
rape; [4]
  Plant response rating, Rape: 0
rape; [5]
  Plant response rating, Rape: 0
rape; [6]
  Rape plant response rating: 0
rape; [7]
  Rape plant response rating: 0
rape; [8]
  Rape plant response rating: 0
Sugar beet; [1]
  Sugarbeets plant response rating: 0
Sugar beet; [2]
  Sugarbeets plant response rating: 0
Sugar beet; [3]
  Sugarbeets plant response rating: 0
Sugar beet; [4]
  Plant response rating, Sugarbeets: 0
Sugar beet; [5]
  Plant response rating, Sugarbeets: 0
Sugar beet; [6]
  Sugarbeets plant response rating: 0
Sugar beet; [7]
  Sugarbeets plant response rating: 0
Sugar beet; [8]
  Sugarbeets plant response rating: 0
velvetleaf; [1]
  Velvetleaf plant response rating: 0
velvetleaf; [2]
  Velvetleaf plant response rating: 2
velvetleaf; [3]
  Velvetleaf plant response rating: 0
velvetleaf; [4]
  Plant response rating, Velvetleaf: 0
velvetleaf; [5]
  Plant response rating, Velvetleaf: 0
velvetleaf; [6]
  Velvetleaf plant response rating: 0
velvetleaf; [7]
  Velvetleaf plant response rating: 2
velvetleaf; [8]
  Velvetleaf plant response rating: 4
wheat; [1]
  Wheat plant response rating: 0
wheat; [2]
  Wheat plant response rating: 0
wheat; [3]
  Wheat plant response rating: 0
wheat; [4]
  Plant response rating, Wheat: 0
wheat; [5]
  Plant response rating, Wheat: 0
wheat; [6]
  Wheat plant response rating: 0
wheat; [7]
  Wheat plant response rating: 0
wheat; [8]
  Wheat plant response rating: 0
Purple nutsedge; [1]
  Nutsedge plant response rating: 0
Purple nutsedge; [2]
  Nutsedge plant response rating: 0
Purple nutsedge; [3]
  Nutsedge plant response rating: 0
Purple nutsedge; [4]
  Plant response rating, Nutsedge: 0
Purple nutsedge; [5]
  Plant response rating, Nutsedge: 0
Purple nutsedge; [6]
  Nutsedge plant response rating: 0
Purple nutsedge; [7]
  Nutsedge plant response rating: 0
Purple nutsedge; [8]
  Nutsedge plant response rating: 0
rice; [1]
  Rice plant response rating: 0
rice; [9]
  Rice plant response rating: 0
rice; [10]
  Rice plant response rating: 0
rice; [11]
  Rice plant response rating: 0
Smallflower flatsedge; [1]
  S. Flatsedge plant response rating: 0
Smallflower flatsedge; [9]
  S. Flatsedge plant response rating: 0
Smallflower flatsedge; [10]
  S. Flatsedge plant response rating: 0
Smallflower flatsedge; [11]
  S. Flatsedge plant response rating: 0
Duck salad; [1]
  Ducksalad plant response rating: 0
Duck salad; [9]
  Ducksalad plant response rating: 0
Duck salad; [10]
  Ducksalad plant response rating: 0
Duck salad; [11]
  Ducksalad plant response rating: 0
